Measurements taken from patent US20140186306A1, “NOVEL AMPK AGONIST COMPOSITIONS AND METHODS OF USE” (priority 2012, published 2014).

Key:
[1] = human, in vivo, cited from earlier work
mice = conditions: oral dose of 500 mg/Kg/day over a 4 week period; cited from earlier work
[2] = tested on: horses with joint and/or soft tissue lameness; assay: Clinical response of racing and non-racing horses with joint and/or soft tissue lameness to AICAR injected intra-articularly or locally infiltrated; type: in vivo, horse; conditions: all treated horses; localized injection of 1.3 mg/ml AICAR
Experimental: In the examples below the novel or test composition indicated as NOVEL was comprised of 1.3 mg/ml solutions of AICAR. The purpose of this study was to evaluate the clinical response of racing and non-racing horses with joint and/or soft tissue lameness to various doses of AICAR, either injected intra-articularly or locally infiltrated into the affected soft tissue structure. […] In most cases, multiple joints or soft tissue structures per animal were treated. In some cases, joints and soft tissue structures were injected simultaneously.
Addition of 0.5 ml of an aminoglycoside antibiotic per 2.5 ml vial of AICAR was left up to the discretion of the attending veterinarian. Prior to the treatment, each case was graded for lameness, swelling and heat, and pain. Each injected joint received either one, 1.3 mg/ml, 2.5 ml dose (3.25 mg) for a small joint, or two, 2.5 ml dose vials for large (stifle) joints. Soft tissue structures, including tendons and tendon sheaths, suspensory ligaments, exostoses (splints), periosteal osteitis, and perineural injections were done with multiple vials of the AICAR. The dose was dependent upon the perceived surface area to be treated. The horses were re-examined at various times post-injection as most horses were stabled at locations remote to the veterinarians. All cases were followed up by telephone calls to trainers/caretakers within 24 hours. […]

SMILES: NC(=O)c1ncn([C@@H]2O[C@H](CO)[C@@H](O)[C@H]2O)c1N [AICAR, 5-amino-1-β-D-ribofuranosyl-imidazole-4-carboxamide]
- oral bioavailability ([1]; po): less than 5%
- plasma clearance [1]: 36.7 mL/min/kg
- performance-enhancing activity (mice): performance-enhancing activity
- adverse events [2]: No adverse events were reported with the exception of transient swelling of a fetlock that was traumatically injected
